Data set [1] has as its target KRAS (G12V)::CRAF protein::protein interaction (Homo sapiens (Human), UniProt P01116, C118S/G12V). The experiment in a line: KRAS TR-FRET assay (KRAS G12V::CRAF, GTP). Format: binding. Here is the method:
(§1) This assay measures the inhibitory effect of compounds on KRAS::CRAF protein::protein interactions in the presence of GTP using Time-resolved fluorescence energy transfer (TR-FRET).
(§2) The following wildtype or mutant alleles of KRAS and CRAF protein have been used at the given concentrations:
KRAS (G12V) 1-169, C118S, N-terminal 6His-tag, C-terminal avi-tag (Boehringer Ingelheim in house protein prep); final assay concentration 15 nM.
(§3) CRAF Ras binding domain, GST-tag, TEV cleavage site (Boehringer Ingelheim in house protein prep); final assay concentration 15 nM.
(§4) Test compounds dissolved in DMSO were dispensed onto assay plates (Proxiplate 384 PLUS, white, PerkinElmer; 6008289) using an Access Labcyte Workstation with the Labcyte Echo 55x. For the chosen highest assay concentration of 100 μM, 150 nl of compound solution was transferred from a 10 mM DMSO compound stock solution. A series of eleven fivefold dilutions per compound was transferred to the assay plate, compound dilutions were tested in duplicates. DMSO was added as backfill to a total volume of 150 nl.
(§5) The assay runs on a fully automated robotic system. To 150 nl of compound dilution 15 μl of a mix including the respective KRAS allele, CRAF (e.g. KRAS (G12D)::CRAF; final assay concentrations see above), GTP nucleotide (Sigma G8877; final assay concentration 10 μM), Lance Eu—W1024 labeled Streptavidin (PerkinElmer, Cat No AD0063; final assay concentration 1.5 nM) and Anti-GST surelight APC (PerkinElmer, Cat No AD0059G; final assay concentration 30 nM) in assay buffer (1×PBS, 0.1% BSA, 0.05% Tween 20) are added into columns 1-23 and 15 μL of the solution without the respective KRAS allele were added to row 24.
(§6) Plates are kept at room temperature in a darkened incubator. After 60 minutes incubation time the signal is measured in a PerkinElmer Envision HTS Multilabel Reader using the TR-FRET LANCE Ultra specs from PerkinElmer.
(§7) Each plate contains 16 wells of a negative control (diluted DMSO instead of test compound; w respective KRAS allele; column 23) and 16 wells of a positive control (diluted DMSO instead of test compound; w/o respective KRAS allele; column 24).
(§8) IC50 values were calculated and analyzed with Boehringer Ingelheim's MEGALAB 50 application using a 4 parametric logistic model.
(§9) Tables of example compounds disclosed herein contain IC50 values determined using the above assays (see Table 44).
A general note: TR-FRET usually uses a lanthanide donor and a delayed reading to cut background.

The target in data set [2] is KRAS (G12D)::CRAF protein::protein interaction (Homo sapiens (Human), UniProt P01116, G12D). The experiment in a line: KRAS TR-FRET assay (KRAS G12D::CRAF, GTP). Format: binding. Here is the method: as §1, §2
KRAS (G12D) 1-169, N-terminal 6His-tag, C-terminal avi-tag (Xtal BioStructures, Inc.); final assay concentration 15 nM,
as §3, §4, §5, §6, §7, §8, §9

Data set [3] addresses KRAS (WT)::CRAF protein::protein interaction (Homo sapiens (Human), UniProt P01116). The experiment in a line: KRAS TR-FRET assay (KRAS WT::CRAF, GTP). The class given is binding. On the procedure:
as §1, §2
KRAS (WT) 1-169, N-terminal 6His-tag, C-terminal avi-tag (Boehringer Ingelheim in house protein prep); final assay concentration 15 nM.
as §3, §4, §5, §6, §7, §8, §9

A short description of data set [4]: Caco-2 assay (permeability and efflux ratio). Format: in vitro ADME. The following applies: human; for Papp A→B at 90 min, 10 μM: Caco-2 apical to basolateral permeability, pH 7.4, read-out: Caco PappAB; for efflux ratio at 90 min, 10 μM: pH 7.4, Caco-2 efflux ratio PappBA/PappAB, read-out: Caco ER. On the procedure: The assay provides information on the potential of a compound to pass the cell membrane, on the extent of oral absorption as well as on whether the compound is actively transported by uptake and/or efflux transporters. Permeability measurements across polarized, confluent Caco-2 cell monolayers grown on permeable filter supports (Corning, catalog #3391) are used. 10 μM test compound solution in assay buffer (128.13 mM NaCl, 5.36 mM KCl, 1 mM MgSO4, 1.8 mM CaCl2), 4.17 mM NaHCO3, 1.19 mM Na2HPO4, 0.41 mM NaH2PO4, 15 mM 2-[4-(2-hydroxyethyl)piperazin-1-yl]ethanesulfonic acid (HEPES), 20 mM glucose, pH 7.4) was added to the donor compartment of the cell chamber containing a monolayer of Caco-2 cells in between the donor and the receiver compartment. The receiver and donor compartments contain 0.25% bovine serum albumine (BSA) in assay buffer. Passive diffusion and/or active transport of compounds across the monolayer is measured in both apical to basolateral (a-b) and basolateral to apical (b-a) direction. a-b permeability (PappAB) represents drug absorption from the intestine into the blood and b-a permeability (PappBA) drug secretion from the blood back into the intestine via both passive permeability as well as active transport mechanisms mediated by efflux and uptake transporters that are expressed on the Caco-2 cells. After a pre-incubation of 25-30 min at 37° C., at predefined time points (0, 30, 60 and 90 min), samples were taken from the receiver and donor compartment, respectively. Concentrations of test compounds in samples were measured by HPLC/MS/MS, samples from the donor compartment were diluted 1:50 (v:v) with assay buffer, samples from receiver compartment were measured without dilution.
Apparent permeabilities in a-b (PappAB) and b-a (PappBA) directions are calculated according to the formula:
[formula] • Vrec [mL]: buffer volume in receiver compartment • Cdon [μmol/mL]: concentration of test compound in donor compartment at t=0 • ΔCrec: difference between concentrations of test compound in receiver compartment at start and end of incubation time • Δt: Incubation time • Vrec·ΔCrec/Δt [μmol/min]: Amount of compound transferred to receiver compartment per time • A [cm^2]: filter surface
Caco-2 efflux ratios (ER) are calculated as the ratio of PappBA/PappAB.
(Caco-2 cells form a polarised layer with tight junctions and transporters.)

Chain of KRAS (G12D)::CRAF protein::protein interaction (P01116 other isoform, or with tags, fused parts or gaps G12D): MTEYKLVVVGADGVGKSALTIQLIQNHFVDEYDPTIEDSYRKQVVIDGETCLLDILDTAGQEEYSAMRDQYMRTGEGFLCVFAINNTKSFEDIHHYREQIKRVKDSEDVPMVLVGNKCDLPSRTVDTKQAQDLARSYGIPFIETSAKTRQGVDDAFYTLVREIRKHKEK
Chain of KRAS (G12V)::CRAF protein::protein interaction (P01116 other isoform, or with tags, fused parts or gaps G12V/C118S): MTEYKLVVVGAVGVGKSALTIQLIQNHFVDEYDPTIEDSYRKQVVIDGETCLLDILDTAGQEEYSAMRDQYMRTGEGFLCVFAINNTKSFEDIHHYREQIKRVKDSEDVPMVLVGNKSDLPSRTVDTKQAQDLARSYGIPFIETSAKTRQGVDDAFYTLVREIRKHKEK
Chain of KRAS (WT)::CRAF protein::protein interaction (P01116 other isoform, or with tags, fused parts or gaps): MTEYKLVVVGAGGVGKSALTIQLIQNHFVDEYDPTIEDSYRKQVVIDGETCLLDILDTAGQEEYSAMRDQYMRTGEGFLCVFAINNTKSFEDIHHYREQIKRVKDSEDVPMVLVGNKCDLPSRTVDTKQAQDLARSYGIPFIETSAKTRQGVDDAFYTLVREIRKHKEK

What is called IC50 is the concentration that inhibits the measured activity by half. Consider `COCCn1c(=O)n([C@@H]2CCOC2)c2nc(-c3onc4c3CCC[C@@]43CCCc4sc(N)c(C#N)c43)nc(O[C@@H](C)[C@@H]3CCCN3C)c21` [I-1], for which the IC50 in data set [1] stood at 107 nM; in data set [2], 145 nM; in data set [3] it was 160 nM. Moreover, the Papp A→B at 90 min, 10 μM in data set [4] was 18 ×10⁻⁶ cm/s. Moreover, the efflux ratio at 90 min, 10 μM in data set [4] was 3.1.

For the compound `CO[C@@H]1C[C@@H]([C@H](C)Oc2nc(-c3onc4c3CCC[C@@]43CCCc4sc(N)c(C#N)c43)nc3c2n(C)c(=O)n3[C@@H]2CCOC2)N(C)C1` [I-3], the IC50 in data set [1] came to 69 nM; in data set [2], 71 nM; in data set [3], 101 nM. Also, in data set [4], the Papp A→B at 90 min, 10 μM came to 29 ×10⁻⁶ cm/s. For the same compound, the efflux ratio at 90 min, 10 μM in data set [4] is 1.9.

On to `CCn1c(=O)n([C@@H]2CCOC2)c2nc(-c3onc4c3CCC[C@@]43CCCc4sc(N)c(C#N)c43)nc(O[C@@H](C)[C@@H]3CCCN3C)c21` [I-21], for which the IC50 in data set [1] came out at 37 nM; in data set [2], 85 nM; in data set [3], 95 nM. The Papp A→B at 90 min, 10 μM in data set [4] was determined as 19 ×10⁻⁶ cm/s. For the same compound, in data set [4], the efflux ratio at 90 min, 10 μM was determined as 3.8.

In the case of `C[C@H](Oc1nc(-c2onc3c2CCC[C@@]32CCCc3sc(N)c(C#N)c32)nc2c1n(C)c(=O)n2C1COC1)[C@@H]1CCCN1C` [I-24], the IC50 came out at 153 nM in data set [1], 565 nM in data set [2] and 749 nM in data set [3].

Consider `C[C@H](Oc1nc(-c2onc3c2CCC[C@@]32CCCc3sc(N)c(C#N)c32)nc2c1n(C)c(=O)n2[C@@H]1CCOC1)[C@@H]1C[C@H](F)CN1C` [I-27], for which the half-inhibitory concentration (IC50) in data set [1] was found to be 196 nM; in data set [2], 410 nM; in data set [3] it was 462 nM.

Consider `C[C@H](Oc1nc(-c2onc3c2CCC[C@@]32CCCc3sc(N)c(C#N)c32)nc2c1n(C)c(=O)n2[C@@H]1CCOC1)[C@@H]1C[C@@H]2C[C@@H]2N1C` [I-28], for which the IC50 in data set [1] turned out to be 241 nM; in data set [2], 434 nM; in data set [3], 541 nM.

As to `CCn1c(=O)n([C@@H]2CCCOC2)c2nc(-c3onc4c3CCC[C@@]43CCCc4sc(N)c(C#N)c43)nc(O[C@@H](C)[C@@H]3CCCN3C)c21` [I-30], the concentration for half-maximal inhibition (IC50) in data set [1] was 102 nM; in data set [2], 163 nM; in data set [3], 153 nM. In data set [4], the efflux ratio at 90 min, 10 μM worked out at 0.7.

As to `CC(C)n1c(=O)n([C@@H]2CCOC2)c2nc(-c3onc4c3CCC[C@@]43CCCc4sc(N)c(C#N)c43)nc(O[C@@H](C)[C@@H]3CCCN3C)c21` [I-32], the IC50 in data set [1] worked out at 191 nM; in data set [2] it was 478 nM; in data set [3] it was 605 nM.

With `C[C@H](Oc1nc(-c2onc3c2CCC[C@@]32CCCc3sc(N)c(C#N)c32)nc2c1ncn2[C@@H]1CCOC1)[C@@H]1CCCN1C` [I-38], the IC50 in data set [1] was determined as 70 nM; in data set [2], 45 nM; in data set [3], 139 nM.

With `Cc1nc2c(O[C@@H](C)[C@@H]3CCCN3C)nc(-c3onc4c3CCC[C@@]43CCCc4sc(N)c(C#N)c43)nc2n1[C@@H]1CCOC1` [I-39], the figures for the IC50 in data set [1], in data set [2] and in data set [3] were 62 nM, 50 nM and 52 nM, respectively.

For the compound `Cc1cc2c(O[C@@H](C)[C@@H]3CCCN3C)nc(-c3onc4c3CCC[C@@]43CCCc4sc(N)c(C#N)c43)nc2n1[C@@H]1CCOC1` [I-40], the figures for the IC50 in data set [1], in data set [2] and in data set [3] were 119 nM, 182 nM and 233 nM, respectively.

For the compound `Cc1cn([C@@H]2CCOC2)c2nc(-c3onc4c3CCC[C@@]43CCCc4sc(N)c(C#N)c43)nc(O[C@@H](C)[C@@H]3CCCN3C)c12` [I-41], the IC50 in data set [1] is 405 nM; in data set [2] it was 362 nM; in data set [3], 1830 nM.

Take `Cc1nn([C@@H]2CCOC2)c2nc(-c3onc4c3CCC[C@@]43CCCc4sc(N)c(C#N)c43)nc(O[C@@H](C)[C@@H]3CCCN3C)c12` [I-42]: the values for the IC50 in data set [1], in data set [2] and in data set [3] were 115 nM, 263 nM and 273 nM, respectively.

Consider `C[C@H](Oc1nc(-c2onc3c2CCC[C@@]32CCCc3sc(N)c(C#N)c32)nc2c1cnn2[C@@H]1CCOC1)[C@@H]1CCCN1C` [I-43], for which the half-maximal inhibitory concentration (IC50) in data set [1] worked out at 149 nM; in data set [2], 255 nM; in data set [3], 326 nM.

Take `CO[C@H]1CCN(C)[C@@H]1[C@H](C)Oc1nc(-c2noc3c2CCC[C@@]32CCCc3sc(N)c(C#N)c32)nc2c1n(C)c(=O)n2[C@@H]1CCOC1` [II-1]: the IC50 in data set [1] was 61 nM; in data set [2] it was 41 nM; in data set [3] it was 54 nM.

With `C[C@H](Oc1nc(-c2noc3c2CCC[C@@]32CCCc3sc(N)c(C#N)c32)nc2c1n(C)c(=O)n2[C@@H]1CCOC1)[C@@H]1CCCN1C` [II-2], the IC50 in data set [1] was 24 nM; in data set [2], 32 nM; in data set [3], 52 nM.

Take `C[C@H](Oc1nc(-c2noc3c2CCC[C@@]32CCCc3sc(N)c(C#N)c32)nc2c1cnn2[C@@H]1CCOC1)[C@@H]1CCCN1C` [II-4]: the values for the IC50 in data set [1], in data set [2] and in data set [3] were 50 nM, 97 nM and 81 nM, respectively.

In the case of `C[C@H](Oc1nc(-c2noc3c2CCC[C@@]32CCCc3sc(N)c(C#N)c32)nc2c1COC[C@@]21CCOC1)[C@@H]1CCCN1C` [II-9a], the concentration for half-maximal inhibition (IC50) was found to be 142 nM in data set [1], 283 nM in data set [2] and 581 nM in data set [3].

Turning to `C[C@H](Oc1nc(-c2noc3c2CCC[C@@]32CCCc3sc(N)c(C#N)c32)nc2c1CCCO[C@]21CCOC1)[C@@H]1CCCN1C` [II-10], the IC50 is 38 nM in data set [1], 128 nM in data set [2] and 56 nM in data set [3].

In the case of `C[C@H](Oc1nc(-c2noc3c2CCC[C@@]32CCCc3sc(N)c(C#N)c32)nc2c1CNC[C@]21CCOC1)[C@@H]1CCCN1C` [II-15], the results for the IC50 in data set [1], in data set [2] and in data set [3] were 17 nM, 18 nM and 40 nM, respectively.

These data come from patent US20250019385A1, “SPIROCYCLIC ANNULATED 2-AMINO-3-CYANO THIOPHENES AND DERIVATIVES FOR THE TREATMENT OF CANCER” (Boehringer Ingelheim International GmbH, priority 2023, published 2025).
